For series [1], the target named is T1, angiotensin-converting enzyme (ACE) from rabbit lungs (Oryctolagus cuniculus, UniProt P12822).
T1 sequence (P12822 34-1310): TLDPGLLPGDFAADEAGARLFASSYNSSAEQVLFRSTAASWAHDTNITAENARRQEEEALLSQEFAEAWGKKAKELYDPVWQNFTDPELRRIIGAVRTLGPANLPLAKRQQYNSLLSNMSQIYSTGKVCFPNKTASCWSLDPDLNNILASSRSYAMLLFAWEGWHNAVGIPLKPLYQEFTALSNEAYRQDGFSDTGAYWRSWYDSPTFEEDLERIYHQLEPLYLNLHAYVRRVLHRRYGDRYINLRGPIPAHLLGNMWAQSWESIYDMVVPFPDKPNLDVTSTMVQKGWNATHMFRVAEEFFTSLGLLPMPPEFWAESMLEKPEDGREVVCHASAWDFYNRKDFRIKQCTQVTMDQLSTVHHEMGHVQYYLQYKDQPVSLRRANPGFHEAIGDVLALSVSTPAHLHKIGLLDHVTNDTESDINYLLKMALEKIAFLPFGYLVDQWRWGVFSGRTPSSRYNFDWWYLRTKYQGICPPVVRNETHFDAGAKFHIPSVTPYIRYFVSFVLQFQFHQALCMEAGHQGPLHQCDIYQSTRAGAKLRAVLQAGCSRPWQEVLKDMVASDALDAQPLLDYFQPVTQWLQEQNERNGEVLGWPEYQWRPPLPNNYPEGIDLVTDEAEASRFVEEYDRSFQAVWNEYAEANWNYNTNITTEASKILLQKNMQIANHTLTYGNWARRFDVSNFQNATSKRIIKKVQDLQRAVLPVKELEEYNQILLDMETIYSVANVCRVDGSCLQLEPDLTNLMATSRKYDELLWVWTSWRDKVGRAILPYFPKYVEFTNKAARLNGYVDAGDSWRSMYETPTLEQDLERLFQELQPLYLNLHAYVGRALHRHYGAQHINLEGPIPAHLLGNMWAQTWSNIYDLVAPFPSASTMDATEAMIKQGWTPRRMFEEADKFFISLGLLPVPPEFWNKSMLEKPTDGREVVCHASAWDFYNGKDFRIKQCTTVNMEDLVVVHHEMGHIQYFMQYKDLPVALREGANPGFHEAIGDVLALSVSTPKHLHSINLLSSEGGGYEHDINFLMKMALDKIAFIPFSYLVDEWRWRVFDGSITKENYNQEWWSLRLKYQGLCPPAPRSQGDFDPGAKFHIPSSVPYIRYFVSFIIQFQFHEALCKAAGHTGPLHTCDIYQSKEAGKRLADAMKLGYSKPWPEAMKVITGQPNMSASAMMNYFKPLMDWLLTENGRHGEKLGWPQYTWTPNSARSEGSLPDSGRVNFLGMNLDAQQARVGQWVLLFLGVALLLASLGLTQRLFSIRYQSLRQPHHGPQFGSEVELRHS
The series can be described thus: Metabolic degradation by purified angiotensin-converting enzyme, HPLC analysis. Format: in vitro ADME. Further details: purified angiotensin-converting enzyme (ACE) from rabbit lungs; purchased Sigma, St-Louis, Mo; host or cells: purified from rabbit lungs. On the procedure: The metabolic stability of various kinin-related peptides was evaluated by incubating the peptide in the presence of purified angiotensin-converting enzyme (ACE) from rabbit lungs (purchased from Sigma, St-Louis, Mo.) dissolved in phosphate buffered saline (PBS) (50 mmol/L, pH 7.5 containing 300 mmoL/L NaCl); the final concentration of enzyme was 45 μg/mL. The experimental protocol for the measurement of ACE activity has been described elsewhere^15,16. Briefly, 200 μmol/L of peptides (40 μL) were placed in a PBS buffer and incubated for 5 min at 37EC before adding 8.5 μL of ACE (total volume of the reaction medium; 190 μL). Samples were withdrawn at 30 min intervals, immersed in boiling water for 5 min, then cooled on ice and centrifuged (5 min) before proceeding to analysis of peptides by high pressure liquid chromatography (HPLC). Results of ACE metabolism are expressed in percent of kinin degradation following the incubation (30 min) of kinin substrates with the enzyme.
Pure peptides and metabolic products were analysed by reverse-phas HPLC on a C18 μBondapak column (4.6 mm×25 cm) (Waters) of 10-μm particle size. The peptides and their fragments were eluted at the rate of 2.0 mL/min. with a linear gradient ranging from 5 to 65% of acetonitrile/TFA 0.05%/water over 20 min. at room temperature. The elution positions of these peptides were determined by following the absorbance at 214 nm. For each assay, 50 μL of the reaction medium (treated or not with ACE) were extracted and injected into the column. Concentrations of the peaks products, different from the peaks of the peptide substrate, were estimated using a computer software program (Baseline 810; Waters) that controlled also all the chromatography operations. Isolated metabolites and substrates were collected and identified by Electrospray mass spectrometry (positive mode).

Series [2] deals with T2, angiotensin-converting enzyme (ACE).
T2 construct: purified angiotensin-converting enzyme (ACE) from rabbit lungs; purchased Sigma, St-Louis, Mo; host or cells: purified from rabbit lungs
The series is described as above. The note with it: rabbit, isolated enzyme ace, pH 7.5. Format: in vitro ADME, rabbit. In a few lines: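 Purified rabbit lung ACE (45 μg/mL final) in PBS (50 mmol/L, pH 7.5, 300 mmol/L NaCl) was incubated with peptides at 37 °C; peptides were pre-incubated 5 min before enzyme addition and samples were boiled to stop the reaction. Percent kinin degradation after 30 min was quantified by C18 reverse-phase HPLC at 214 nm, with metabolites identified by electrospray MS.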

Read-outs that look alike come from different tables or passages of the source. Non-standard residues stand in square brackets, D forms with d. Residues, ends and D or L forms follow the SMILES beside them. Tyr(3,5-I2) = N[C@@H](Cc1cc(I)c(O)c(I)c1)C(=O)O; d2Nal = N[C@H](Cc1ccc2ccccc2c1)C(=O)O; Ahx = NCCCCCC(=O)O; Sar = CNCC(=O)O

Consider `CC[C@H](C)[C@H](NC(=O)[C@@H](Cc1ccc2ccccc2c1)NC(=O)[C@H](CO)NC(=O)[C@H](Cc1ccccc1)NC(=O)CNC(=O)[C@@H]1CCCN1C(=O)[C@@H]1CCCN1C(=O)[C@H](CCCNC(=N)N)NC(=O)[C@H](N)CCCCN)C(=O)O` [Compound 25, D-Lys(D-βNal^7, Ile^8)desArg^9BK] (H-[dK]RPPGFS[d2Nal]I-OH; N-terminus and C-terminus assumed), for which the “Less susceptible to ACE proteolytic degradation, relative to Lys(Leu8)desArgBK” value (from here on “Less susceptible … relative to Lys(Leu8)desArgBK”) in series [1] is given as 2-5 times. The same compound gave a metabolised at 0.5 h, 42.1 μmol/L in series [2] of 9 ± 2%.

As for `CC[C@H](C)[C@H](NC(=O)[C@@H](Cc1ccc2ccccc2c1)NC(=O)[C@H](CO)NC(=O)[C@H](Cc1ccccc1)NC(=O)CNC(=O)[C@@H]1CCCN1C(=O)[C@@H]1CCCN1C(=O)[C@H](CCCNC(=N)N)NC(=O)CNC)C(=O)O` [Compound 26, Sar(D-βNal^7, Ile^8)desArg^9BK] (H-[Sar]RPPGFS[d2Nal]I-OH; N-terminus and C-terminus assumed), the “Less susceptible … relative to Lys(Leu8)desArgBK” value in series [1] was 2-5 times. Moreover, in series [2] (30 min incubation of peptide (200 μmol/L) with ACE, 37 C, read-out: ACE (% degradation)), the metabolised at 0.5 h, 42.1 μmol/L came to 0%.

As for `CC(=O)N[C@@H](Cc1ccc(O)cc1)C(=O)NCCCCCC(=O)N[C@@H](CCCCN)C(=O)N[C@@H](CCCNC(=N)N)C(=O)N1CCC[C@H]1C(=O)N1CCC[C@H]1C(=O)NCC(=O)N[C@@H](Cc1ccccc1)C(=O)N[C@@H](CO)C(=O)N1CCC[C@H]1C(=O)N[C@@H](CC(C)C)C(=O)O` [Compound 27, AcTyrεAhxLys(Leu^8)desArg^9BK], the “Less susceptible … relative to Lys(Leu8)desArgBK” value in series [1] was 2-5 times. This compound also returned a metabolised at 0.5 h, 42.1 μmol/L in series [2] of 52 ± 1%.

`CNCC(=O)N[C@@H](Cc1ccc(O)cc1)C(=O)NCCCCCC(=O)N[C@@H](CCCCN)C(=O)N[C@@H](CCCNC(=N)N)C(=O)N1CCC[C@H]1C(=O)N1CCC[C@H]1C(=O)NCC(=O)N[C@@H](Cc1ccccc1)C(=O)N[C@@H](CO)C(=O)N1CCC[C@H]1C(=O)N[C@@H](CC(C)C)C(=O)O` [Compound 28, SarTyrεAhxLys(Leu^8)desArg^9BK]: the “Less susceptible … relative to Lys(Leu8)desArgBK” value in series [1] is listed as 2-5 times. This compound showed a metabolised at 0.5 h, 42.1 μmol/L in series [2] of 34 ± 3%.

With `CC[C@H](C)[C@H](NC(=O)[C@@H](Cc1ccc2ccccc2c1)NC(=O)[C@H](CO)NC(=O)[C@H](Cc1ccccc1)NC(=O)CNC(=O)[C@@H]1CCCN1C(=O)[C@@H]1CCCN1C(=O)[C@H](CCCNC(=N)N)NC(=O)[C@H](CCCCN)NC(=O)CCCCCNC(=O)[C@H](Cc1ccc(O)cc1)NC(=O)CNC)C(=O)O` [Compound 29, SarTyrεAhxLys(D-βNal^7, Ile^8)desArg^9BK] (H-[Sar]Y[Ahx]KRPPGFS[d2Nal]I-OH; N-terminus and C-terminus assumed), the “Less susceptible … relative to Lys(Leu8)desArgBK” value in series [1] is listed as 2-5 times. The compound further had a metabolised at 0.5 h, 42.1 μmol/L in series [2] of 15 ± 1%.

With `CC[C@H](C)[C@H](NC(=O)[C@@H](Cc1ccc2ccccc2c1)NC(=O)[C@H](CO)NC(=O)[C@H](Cc1ccccc1)NC(=O)CNC(=O)[C@@H]1CCCN1C(=O)[C@@H]1CCCN1C(=O)[C@H](CCCNC(=N)N)NC(=O)[C@H](CCCCN)NC(=O)CCCCCNC(=O)[C@H](Cc1cc(I)c(O)c(I)c1)NC(=O)CNC)C(=O)O` [Compound 30, SarTyr(3,5-I)εAhxLys(D-βNal^7, Ile^8)desArg^9BK] (H-[Sar][Tyr(3,5-I2)][Ahx]KRPPGFS[d2Nal]I-OH; N-terminus and C-terminus assumed), in series [1], the “Less susceptible … relative to Lys(Leu8)desArgBK” value is on record as 2-5 times. For the same compound, in series [2], the metabolised at 0.5 h, 42.1 μmol/L worked out at 13 ± 1%.
